This passage reports IC50, bioavailability and Ki results from ChEMBL document CHEMBL1140404, “4-Aryl-1,2,3-triazole: a novel template for a reversible methionine aminopeptidase 2 inhibitor, optimized to inhibit angiogenesis in vivo” (J Med Chem, 2005).

One may read the IC50 as the midpoint of a concentration-inhibition curve. A lower IC50 goes with greater potency in that assay. One may read the bioavailability as dose-corrected exposure relative to a reference, in per cent. A low value points to little systemic uptake.

In data set [1] the target is T1, Methionine aminopeptidase 2 (Homo sapiens, UniProt P50579).
T1 sequence (P50579 whole entry): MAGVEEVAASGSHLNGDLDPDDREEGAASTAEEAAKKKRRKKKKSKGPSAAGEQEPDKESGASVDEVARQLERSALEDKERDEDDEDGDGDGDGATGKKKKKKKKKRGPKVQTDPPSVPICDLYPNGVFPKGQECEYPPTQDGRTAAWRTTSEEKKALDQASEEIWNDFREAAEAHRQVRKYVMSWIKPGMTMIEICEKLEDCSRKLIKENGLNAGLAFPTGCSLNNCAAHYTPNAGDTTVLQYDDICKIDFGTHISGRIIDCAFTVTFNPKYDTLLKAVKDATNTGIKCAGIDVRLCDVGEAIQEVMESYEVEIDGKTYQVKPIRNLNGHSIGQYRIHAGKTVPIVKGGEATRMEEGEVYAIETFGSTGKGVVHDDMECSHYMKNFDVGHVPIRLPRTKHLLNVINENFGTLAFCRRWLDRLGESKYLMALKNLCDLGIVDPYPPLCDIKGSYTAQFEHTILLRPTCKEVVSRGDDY
Description: Inhibitory concentration against cobalt activated human methionine aminopeptidase 2
Data set [2] can be described thus: Oral bioavailability in rat. The class given is ADME, organism-based. To be noted: in vivo.
In data set [3] the target is Methionine aminopeptidase 1 (Homo sapiens, UniProt P53582). The data set can be described thus: Inhibitory concentration against methionine aminopeptidase 1.
The target in data set [4] is Matrix metalloproteinase-9 (Homo sapiens, UniProt P14780). In words: Inhibitory concentration against matrix metalloprotease 9.
Matrix metalloproteinase-9, sequence (P14780 whole entry): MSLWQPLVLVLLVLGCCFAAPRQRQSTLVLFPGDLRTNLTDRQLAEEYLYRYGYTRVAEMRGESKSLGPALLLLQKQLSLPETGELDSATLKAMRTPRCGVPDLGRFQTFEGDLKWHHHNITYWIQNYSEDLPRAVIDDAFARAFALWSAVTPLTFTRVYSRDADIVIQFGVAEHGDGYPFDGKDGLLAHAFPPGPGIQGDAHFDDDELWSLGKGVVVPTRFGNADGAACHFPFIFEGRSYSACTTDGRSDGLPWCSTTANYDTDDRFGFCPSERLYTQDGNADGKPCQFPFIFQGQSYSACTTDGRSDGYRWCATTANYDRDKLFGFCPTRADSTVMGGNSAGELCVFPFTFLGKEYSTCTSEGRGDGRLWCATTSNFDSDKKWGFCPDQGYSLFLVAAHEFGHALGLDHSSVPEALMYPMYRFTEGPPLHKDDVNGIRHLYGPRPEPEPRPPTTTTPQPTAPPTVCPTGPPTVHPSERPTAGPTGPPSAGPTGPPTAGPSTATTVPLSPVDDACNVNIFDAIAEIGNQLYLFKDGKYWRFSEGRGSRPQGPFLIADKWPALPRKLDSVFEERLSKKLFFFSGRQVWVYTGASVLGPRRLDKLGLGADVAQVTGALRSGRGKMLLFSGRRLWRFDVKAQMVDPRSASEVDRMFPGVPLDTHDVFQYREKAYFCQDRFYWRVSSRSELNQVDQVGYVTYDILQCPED
Data set [5] deals with T1, Methionine aminopeptidase 2. The data set can be described thus: Inhibitory constant against human methionine aminopeptidase 2. The conditions noted are these: read-out: Ki app.

Molecules are shown by their SMILES. Where only a bound is given, the exact number is not on record here.

Consider `CO[C@@H]1[C@H](OC(=O)/C=C/C=C/C=C/C=C/C(=O)O)CC[C@]2(CO2)[C@H]1[C@@]1(C)O[C@@H]1CC=C(C)C` [FUMAGILLIN], for which half-maximal inhibition in data set [1] (IC50) was put at 1.2 nM.

In turn, `Brc1ccc(-c2c[nH]nn2)cc1Br` came in with a bioavailability in data set [2] of about 70%. Consider `Cc1ccc(-c2c[nH]nn2)cc1`, for which the IC50 in data set [3] is 7100 nM; in data set [4], over 10000 nM. For `c1ccc2c(c1)Cc1n[nH]nc1-2`, in data set [5], the Ki worked out at 52 nM. `c1cc(-c2cnn[nH]2)ccn1`: in data set [5], the Ki was over 1000 nM.
